ChEMBL document CHEMBL4483862, “Open-source discovery of chemical leads for next-generation chemoprotective antimalarials” (2018)

System: Plasmodium berghei
Test: Luciferase/luciferin-expressing antifolate-resistant parasites were used to infect a culture of HepG2 cells that were pre-incubated with compounds. Infected hepatocytes emit light due to the luciferase reaction. Assay results are presented as the percent inhibition of light emission compared to control. […]
Format: functional
Conditions: sporozoite; for IC90: read-out: LUCIFERASE INFECTION ASSAY - IC90
[1] = read-out: LUCIFERASE INFECTION ASSAY - IC50

Compound | IC90 | IC50 [1] | further results
O=C(Cn1ncc(Br)c(Br)c1=O)C12CC3CC(CC(C3)C1)C2 | > 10 µM | – | IC50 (HEPG2TOX_HILL_SLOPE 11, HEPG2TOX_R_SQUARED 0.947, PBLUC_HILL_SLOPE 1.04, PBLUC_R_SQUARED 0.291, read-out: LUCIFERASE INFECTION ASSAY - IC50): 2.75 µM
CN(C)C(=O)c1ccc(-c2cnc3cnc(-c4ccc(F)c(Cl)c4)cn23)cc1 | > 8.36 µM | > 8.36 µM | –
CCCn1c(=O)c2ccccc2n2c(SCc3nc(=O)c4ccc(C(=O)O)cc4[nH]3)nnc12 | > 10 µM | > 10 µM | –
CC(=O)NC12CC3CC(C1)CC(C(=O)Nc1ccc4c(c1)-c1ccccc1C4)(C3)C2 | 5.37 µM | – | IC50 (PBLUC_HILL_SLOPE 1.58, PBLUC_R_SQUARED 0.82, read-out: LUCIFERASE INFECTION ASSAY - IC50): 1.34 µM
CC1CCN(C(=O)COc2ccc(C(C)C)cc2Br)CC1 | 8.51 µM | – | IC50 (HEPG2TOX_HILL_SLOPE 9.85, HEPG2TOX_R_SQUARED 0.75, PBLUC_HILL_SLOPE 15.1, PBLUC_R_SQUARED 0.202, read-out: LUCIFERASE INFECTION ASSAY - IC50): 7.36 µM
CN(c1ccccc1)S(=O)(=O)c1ccc(C(=O)Nc2nn3cc(-c4ccccc4)nc3s2)cc1 | > 10 µM | – | IC50 (HEPG2TOX_HILL_SLOPE 0.762, HEPG2TOX_R_SQUARED 0.67, PBLUC_HILL_SLOPE 10.6, PBLUC_R_SQUARED 0.0386, read-out: LUCIFERASE INFECTION ASSAY - IC50): > 10 µM
CC(NCc1nc(N)nc(N(C)C)n1)c1ccccc1Cl (centres undefined) | > 10 µM | > 10 µM | –
c1ccc2cc(C3=NNC(=NC4CC4)SC3)ccc2c1 | 0.0194 µM | – | IC50 (FFLUC_HILL_SLOPE 2.37, FFLUC_R_SQUARED 0.781, HEPG2TOX_HILL_SLOPE 1.63, HEPG2TOX_R_SQUARED 0.913, PBLUC_HILL_SLOPE 5.38, PBLUC_R_SQUARED 0.229, read-out: LUCIFERASE INFECTION ASSAY - IC50): 0.0129 µM
CC(Cc1ccco1)NCc1ccc(-n2ccnc2)cc1 (centres undefined) | > 10 µM | > 10 µM | –
Cc1ccc(C)c(OCC(O)Cn2nc(C)c3ccccc3c2=O)c1C (centres undefined) | > 10 µM | > 10 µM | –
O=c1c2ccccc2nc(Sc2ccc([N+](=O)[O-])c(C(F)(F)F)c2)n1-c1ccc(OC(F)F)cc1 | > 10 µM | > 10 µM | –
O=C1NC(c2ccccc2)=C(c2nc3ccccc3s2)C(c2ccc(O)cc2)N1 (centres undefined) | > 10 µM | – | IC50 (FFLUC_HILL_SLOPE 17.5, FFLUC_R_SQUARED 0.699, PBLUC_HILL_SLOPE 3.26, 2.75, PBLUC_R_SQUARED 0.346, 0.719, read-out: LUCIFERASE INFECTION ASSAY - IC50): 5.94 µM
NS(=O)(=O)c1ccc(CCNc2nn3c(-c4ccc(Cl)cc4)cnc3s2)cc1 | > 7.6 µM | > 7.6 µM | –
COc1cc(C(=O)N/N=C2\C(=O)Nc3ccc(C(C)C)cc32)cc(OC)c1OC | > 10 µM | – | IC50 (FFLUC_HILL_SLOPE 15.7, FFLUC_R_SQUARED 0.417, HEPG2TOX_HILL_SLOPE 3.31, HEPG2TOX_R_SQUARED 0.963, PBLUC_HILL_SLOPE 2.41, PBLUC_R_SQUARED 0.374, read-out: LUCIFERASE INFECTION ASSAY - IC50): 4.85 µM
COc1ccccc1-n1nnnc1SC(C)C(=O)Nc1ccc2[nH]c(=O)[nH]c2c1 (centres undefined) | > 10 µM | > 10 µM | –
COCCCn1c(C)cc(C(=O)CSc2nc(C)nc3c2c(=O)n(C)c(=O)n3CC(C)C)c1C | > 10 µM | > 10 µM | –
Cc1ccc(-c2cnn3c(N4CCOCC4)cc(C)nc23)cc1 | > 10.7 µM | – | IC50 (PBLUC_HILL_SLOPE 2.15, PBLUC_R_SQUARED 0.469, read-out: LUCIFERASE INFECTION ASSAY - IC50): 5.44 µM
COc1ccc(C2CC(=O)c3c(n[nH]c3C)C2)cc1 (centres undefined) | > 12.9 µM | – | IC50 (PBLUC_HILL_SLOPE 1.11, PBLUC_R_SQUARED 0.36, read-out: LUCIFERASE INFECTION ASSAY - IC50): 4.45 µM
Cc1cc(N2CCN(c3nc(C)cc(C)c3C#N)CC2)nc(C(C)C)n1 | > 10 µM | > 10 µM | –
CC1(C)C2CC=C(/C=N/NC(=O)Cn3c(C(F)(F)F)nc4ccccc43)C1C2 (centres undefined) | > 10 µM | – | IC50 (PBLUC_HILL_SLOPE 3.28, PBLUC_R_SQUARED 0.493, read-out: LUCIFERASE INFECTION ASSAY - IC50): 6.15 µM
CC(C)CNC(=O)NC(=O)COC(=O)c1c2c(nc3ccccc13)CCCCC2 | 7.96 µM | 3.9 µM | –
CCOc1ccc(C(=O)NCc2ccco2)cc1Cl | > 11.8 µM | – | IC50 (PBLUC_HILL_SLOPE 19.7, PBLUC_R_SQUARED 0.665, read-out: LUCIFERASE INFECTION ASSAY - IC50): 11.5 µM
CC(C)c1ccc(C(=O)Nc2ccccn2)cc1 | > 13.7 µM | – | IC50 (FFLUC_HILL_SLOPE 1.25, FFLUC_R_SQUARED 0.914, PBLUC_HILL_SLOPE 0.406, PBLUC_R_SQUARED 0.482, read-out: LUCIFERASE INFECTION ASSAY - IC50): 1.63 µM
COc1ccc(Nc2nccc3[nH]c(-c4ccsc4)cc23)cc1OC | 7.38 µM | – | IC50 (HEPG2TOX_HILL_SLOPE 8.96, HEPG2TOX_R_SQUARED 0.789, PBLUC_HILL_SLOPE 2.87, PBLUC_R_SQUARED 0.796, read-out: LUCIFERASE INFECTION ASSAY - IC50): 3.43 µM

Compound | IC90 | IC50 [1] | further results
FC(F)Oc1ccccc1/C=N/n1c(-c2ccc3c(c2)OCCO3)cs/c1=N\CC1CCCO1 (centres undefined) | > 10 µM | > 10 µM | –
FC(F)(F)c1cnc(/C=N/Nc2ncc(C(F)(F)F)cc2Cl)c(Cl)c1 | 3.13 µM | 2.69 µM | –
c1cc2c(cc1C1=NNC(=NC3CC3)SC1)CCCC2 | 0.277 µM | – | IC50 (FFLUC_HILL_SLOPE 1.51, FFLUC_R_SQUARED 0.952, HEPG2TOX_HILL_SLOPE 2.86, HEPG2TOX_R_SQUARED 0.94, PBLUC_HILL_SLOPE 0.977, PBLUC_R_SQUARED 0.884, read-out: LUCIFERASE INFECTION ASSAY - IC50): 0.0292 µM
O=C(N/N=C/c1c(-c2ccccc2)nc2sc3c(n12)CCCC3)c1ccc(Br)cc1 | 8.36 µM | – | IC50 (FFLUC_HILL_SLOPE 0.19, FFLUC_R_SQUARED 0.758, PBLUC_HILL_SLOPE 1.28, PBLUC_R_SQUARED 0.573, read-out: LUCIFERASE INFECTION ASSAY - IC50): 1.51 µM
COc1ccc(-c2cc(NC(=O)C(C)NS(=O)(=O)c3ccc(C)cc3)ccc2OC(F)F)cc1 (centres undefined) | > 10 µM | 8.3 µM | –
CCN(CC)c1ccc(/C=C(\C#N)c2nc3c(s2)CC(C)CC3)cc1 (centres undefined) | > 10 µM | – | IC50 (HEPG2TOX_HILL_SLOPE 34.4, HEPG2TOX_R_SQUARED 0.353, PBLUC_HILL_SLOPE 1.55, PBLUC_R_SQUARED 0.645, read-out: LUCIFERASE INFECTION ASSAY - IC50): 4.58 µM
CC(=O)Oc1ccccc1C(=O)NCc1ccc(C)cc1 | > 11.6 µM | > 11.6 µM | –
O=C(CO/N=C/c1ccc(OCc2ccccc2)c(OCc2ccccc2)c1)N1CCCCCC1 | > 10 µM | – | IC50 (PBLUC_HILL_SLOPE 29.4, PBLUC_R_SQUARED 0.303, read-out: LUCIFERASE INFECTION ASSAY - IC50): 9.83 µM
N#CCSC1=CC(=O)CC(c2ccccc2)S1 (centres undefined) | > 12.6 µM | > 12.6 µM | –
CC(C)N1C(=O)/C(=N\NC(=S)Nc2cccnc2)c2ccccc21 | 5.01 µM | – | IC50 (FFLUC_HILL_SLOPE 0.241, FFLUC_R_SQUARED 0.177, HEPG2TOX_HILL_SLOPE 1.23, HEPG2TOX_R_SQUARED 0.88, PBLUC_HILL_SLOPE 2.27, PBLUC_R_SQUARED 0.476, read-out: LUCIFERASE INFECTION ASSAY - IC50): 1.9 µM
O=C(NCC#Cc1cccc(C(F)(F)F)c1)c1[nH]nc2ccccc12 | > 10 µM | – | IC50 (FFLUC_HILL_SLOPE 1.72, FFLUC_R_SQUARED 0.47, read-out: LUCIFERASE INFECTION ASSAY - IC50): > 10 µM
Cc1nn(CC(=O)NNC(=O)CC23CC4CC(CC(C4)C2)C3)c(=O)c2ccccc12 | 6.96 µM | – | IC50 (PBLUC_HILL_SLOPE 1.76, PBLUC_R_SQUARED 0.72, read-out: LUCIFERASE INFECTION ASSAY - IC50): 2 µM
Cc1ccc(-c2oc3ccccc3c(=O)c2O)cc1 | > 13.1 µM | > 13.1 µM | –
O=C(NC1CCSc2ccccc21)c1cnn(Cc2ccccc2Cl)c1 (centres undefined) | > 10 µM | – | IC50 (HEPG2TOX_HILL_SLOPE 8.01, HEPG2TOX_R_SQUARED 0.477, PBLUC_HILL_SLOPE 11.5, PBLUC_R_SQUARED 0.343, read-out: LUCIFERASE INFECTION ASSAY - IC50): 9.41 µM
CC(C)c1ccc(C(=O)N2CC(C(=O)N3CCOCC3)Oc3ccccc32)cc1 (centres undefined) | > 10 µM | > 10 µM | –
COc1ccc(CCN2C(=O)N(C(C)C)C(=O)C23CCN(Cc2ccc(Cl)cc2)CC3)cc1 | > 7.02 µM | – | IC50 (PBLUC_HILL_SLOPE 14.8, PBLUC_R_SQUARED 0.317, read-out: LUCIFERASE INFECTION ASSAY - IC50): 6.11 µM
Cc1ccc(C)c(CN2CCC3(CC2)C(=O)N(CCCc2cccnc2)C(=O)N3Cc2ccccc2)c1 | 5.55 µM | 4.38 µM | –
Cc1ccc(NC(=O)N2[C@@H]3CC[C@@H](C3)[C@H]2c2nc3cccc(OCc4ccccc4)c3[nH]2)cc1 | > 10 µM | > 10 µM | –
O=C(c1cc2cc(Cl)ccc2o1)N1CCN(Cc2ccc3c(c2)OCO3)CC1 | > 8.27 µM | > 8.27 µM | –
Cc1ccc(S(=O)(=O)n2c3ccc(Cl)cc3c3nc(C)sc32)cc1 | > 8.76 µM | – | IC50 (FFLUC_HILL_SLOPE 13.1, FFLUC_R_SQUARED 0.689, read-out: LUCIFERASE INFECTION ASSAY - IC50): > 8.76 µM
CCOC(=O)C1=C(NC(=O)Nc2ccc(Cl)c(Cl)c2)Nc2ccccc2N=C1CC | > 10 µM | > 10 µM | –
Cn1cccc1C(=O)OCC(=O)NCc1cccs1 | > 10 µM | > 10 µM | –
COc1ccc(/C=C2\N=C(SCC(=O)O)N(Cc3ccccc3)C2=O)cc1 | 0.545 µM | – | IC50 (PBLUC_HILL_SLOPE 72.9, PBLUC_R_SQUARED 0.433, read-out: LUCIFERASE INFECTION ASSAY - IC50): 0.529 µM
